{
  "source": "patent US20220226341A1",
  "about": "“Pharmaceutical Composition for Alzheimer's Disease” (Kyoto University, priority 2019, published 2022)",
  "assay": "Tissue distribution of radioactivity after single intravenous administration of 14C-labeled Compound 1 (blood-brain barrier penetration)",
  "format": "in vivo",
  "conditions": "rats, single iv 5 mg/kg 14C-labeled, n = 3",
  "experimental": "[Testing the Penetration of the Compound Through the Blood-Brain Barrier]\nBrain permeability (intracerebral transferability) of Compound 1 was evaluated.\n^14C-labeled Compound 1 was intravenously administered once in a dose of 5 mg/kg (3.52 MBq/kg) to rats, and histological distribution (biodistribution) thereof was studied.",
  "data": [
    {"smiles": "Fc1ccc(N2CCCCC2)c(NC(=S)c2ccncc2)c1", "note": "[Compound 1]", "values": [
      {"measurement": "Radioactivity concentration", "setting": "Adrenal gland, 5 min", "value": "47334.91 ng eq. of Compound 1/g or mL"},
      {"measurement": "Radioactivity concentration", "setting": "Adrenal gland, 6 h", "value": "1517.3 ng eq. of Compound 1/g or mL"},
      {"measurement": "Radioactivity concentration", "setting": "Adrenal gland, 24 h", "value": "195.16 ng eq. of Compound 1/g or mL"},
      {"measurement": "Radioactivity concentration", "setting": "Adrenal gland, 72 h", "value": "23.21 ng eq. of Compound 1/g or mL"},
      {"measurement": "Radioactivity concentration", "setting": "Aorta, 5 min", "value": "1995.27 ng eq. of Compound 1/g or mL"},
      {"measurement": "Radioactivity concentration", "setting": "Aorta, 6 h", "value": "730.03 ng eq. of Compound 1/g or mL"},
      {"measurement": "Radioactivity concentration", "setting": "Aorta, 24 h", "value": "76.22 ng eq. of Compound 1/g or mL"},
      {"measurement": "Radioactivity concentration", "setting": "Bonemarrow, 5 min", "value": "6109.89 ng eq. of Compound 1/g or mL"},
      {"measurement": "Radioactivity concentration", "setting": "Bonemarrow, 6 h", "value": "900.75 ng eq. of Compound 1/g or mL"},
      {"measurement": "Radioactivity concentration", "setting": "Bonemarrow, 24 h", "value": "106.7 ng eq. of Compound 1/g or mL"},
      {"measurement": "Radioactivity concentration", "setting": "Brown fat, 5 min", "value": "8467.9 ng eq. of Compound 1/g or mL"},
      {"measurement": "Radioactivity concentration", "setting": "Brown fat, 6 h", "value": "6412.21 ng eq. of Compound 1/g or mL"},
      {"measurement": "Radioactivity concentration", "setting": "Brown fat, 24 h", "value": "217.43 ng eq. of Compound 1/g or mL"},
      {"measurement": "Radioactivity concentration", "setting": "Brown fat, 72 h", "value": "11.3 ng eq. of Compound 1/g or mL"},
      {"measurement": "Radioactivity concentration", "setting": "Cecum, 5 min", "value": "5555.55 ng eq. of Compound 1/g or mL"},
      {"measurement": "Radioactivity concentration", "setting": "Cecum, 6 h", "value": "3979.48 ng eq. of Compound 1/g or mL"},
      {"measurement": "Radioactivity concentration", "setting": "Epididymis, 5 min", "value": "2568.88 ng eq. of Compound 1/g or mL"},
      {"measurement": "Radioactivity concentration", "setting": "Epididymis, 6 h", "value": "1809.29 ng eq. of Compound 1/g or mL"},
      {"measurement": "Radioactivity concentration", "setting": "Epididymis, 24 h", "value": "312.66 ng eq. of Compound 1/g or mL"},
      {"measurement": "Radioactivity concentration", "setting": "Epididymis, 72 h", "value": "21.99 ng eq. of Compound 1/g or mL"},
      {"measurement": "Radioactivity concentration", "setting": "Eyeball, 5 min", "value": "1785.93 ng eq. of Compound 1/g or mL"},
      {"measurement": "Radioactivity concentration", "setting": "Eyeball, 6 h", "value": "960.39 ng eq. of Compound 1/g or mL"},
      {"measurement": "Radioactivity concentration", "setting": "Eyeball, 24 h", "value": "117.64 ng eq. of Compound 1/g or mL"},
      {"measurement": "Radioactivity concentration", "setting": "Eyeball, 72 h", "value": "7.03 ng eq. of Compound 1/g or mL"},
      {"measurement": "Radioactivity concentration", "setting": "Fat, 5 min", "value": "1181.88 ng eq. of Compound 1/g or mL"},
      {"measurement": "Radioactivity concentration", "setting": "Fat, 6 h", "value": "5031.8 ng eq. of Compound 1/g or mL"},
      {"measurement": "Radioactivity concentration", "setting": "Fat, 24 h", "value": "1665.35 ng eq. of Compound 1/g or mL"},
      {"measurement": "Radioactivity concentration", "setting": "Fat, 72 h", "value": "112.35 ng eq. of Compound 1/g or mL"},
      {"measurement": "Radioactivity concentration", "setting": "Harderian gland, 5 min", "value": "12633.83 ng eq. of Compound 1/g or mL"},
      {"measurement": "Radioactivity concentration", "setting": "Harderian gland, 6 h", "value": "1418.19 ng eq. of Compound 1/g or mL"},
      {"measurement": "Radioactivity concentration", "setting": "Harderian gland, 24 h", "value": "131.47 ng eq. of Compound 1/g or mL"},
      {"measurement": "Radioactivity concentration", "setting": "Harderian gland, 72 h", "value": "8.95 ng eq. of Compound 1/g or mL"},
      {"measurement": "Radioactivity concentration", "setting": "Heart, 5 min", "value": "8604.53 ng eq. of Compound 1/g or mL"},
      {"measurement": "Radioactivity concentration", "setting": "Heart, 6 h", "value": "912.54 ng eq. of Compound 1/g or mL"},
      {"measurement": "Radioactivity concentration", "setting": "Heart, 24 h", "value": "105.78 ng eq. of Compound 1/g or mL"},
      {"measurement": "Radioactivity concentration", "setting": "Heart, 72 h", "value": "10.01 ng eq. of Compound 1/g or mL"},
      {"measurement": "Radioactivity concentration", "setting": "Kidney, 5 min", "value": "13230.64 ng eq. of Compound 1/g or mL"},
      {"measurement": "Radioactivity concentration", "setting": "Kidney, 6 h", "value": "2138.26 ng eq. of Compound 1/g or mL"},
      {"measurement": "Radioactivity concentration", "setting": "Kidney, 24 h", "value": "264.55 ng eq. of Compound 1/g or mL"},
      {"measurement": "Radioactivity concentration", "setting": "Kidney, 72 h", "value": "31.5 ng eq. of Compound 1/g or mL"},
      {"measurement": "Radioactivity concentration", "setting": "Kidney, 168 h", "value": "12.02 ng eq. of Compound 1/g or mL"},
      {"measurement": "Radioactivity concentration", "setting": "Liver, 5 min", "value": "29518.18 ng eq. of Compound 1/g or mL"},
      {"measurement": "Radioactivity concentration", "setting": "Liver, 6 h", "value": "3033.96 ng eq. of Compound 1/g or mL"},
      {"measurement": "Radioactivity concentration", "setting": "Liver, 24 h", "value": "740.19 ng eq. of Compound 1/g or mL"},
      {"measurement": "Radioactivity concentration", "setting": "Liver, 72 h", "value": "180.72 ng eq. of Compound 1/g or mL"},
      {"measurement": "Radioactivity concentration", "setting": "Liver, 168 h", "value": "48.2 ng eq. of Compound 1/g or mL"},
      {"measurement": "Radioactivity concentration", "setting": "Lung, 5 min", "value": "7645.96 ng eq. of Compound 1/g or mL"},
      {"measurement": "Radioactivity concentration", "setting": "Lung, 6 h", "value": "1247.84 ng eq. of Compound 1/g or mL"},
      {"measurement": "Radioactivity concentration", "setting": "Lung, 24 h", "value": "175.43 ng eq. of Compound 1/g or mL"},
      {"measurement": "Radioactivity concentration", "setting": "Lung, 72 h", "value": "33.55 ng eq. of Compound 1/g or mL"},
      {"measurement": "Radioactivity concentration", "setting": "Lung, 168 h", "value": "12.98 ng eq. of Compound 1/g or mL"},
      {"measurement": "Radioactivity concentration", "setting": "Mandibular gland, 5 min", "value": "13355.34 ng eq. of Compound 1/g or mL"},
      {"measurement": "Radioactivity concentration", "setting": "Mandibular gland, 6 h", "value": "995.48 ng eq. of Compound 1/g or mL"}
    ]}
  ]
}
